Species: Rattus norvegicus
Test: DrugMatrix - Regimen: Daily Repeat
Format: toxicity, organism-based, Sprague-Dawley
Parameters: regimen Daily Repeat, gender Male, age 6-8 weeks
Details: in vivo, po, route oral GAVAGE, vehicle 100 % WATER; for ABSOLUTE BASOPHIL / ABSOLUTE EOSINOPHIL / ABSOLUTE LYMPHOCYTE / ABSOLUTE MONOCYTE / ABSOLUTE SEGMENTED NEUTROPHIL / BASOPHIL / EOSINOPHIL / ERYTHROCYTE COUNT / HEMATOCRIT / HEMOGLOBIN / LEUKOCYTE COUNT / LYMPHOCYTE / MEAN CORPUSCULAR HEMOGLOBIN / MEAN CORPUSCULAR HEMOGLOBIN CONCENTRATION / MEAN CORPUSCULAR VOLUME / MONOCYTE / NEUTROPHIL / NUCLEATED RED BLOOD CELLS / PLATELET COUNT: tissue Blood; for ALANINE AMINOTRANSFERASE / ALBUMIN / ALKALINE PHOSPHATASE / ASPARTATE AMINOTRANSFERASE / BLOOD UREA NITROGEN / CARBON DIOXIDE / CHLORIDE / CHOLESTEROL / CREATINE PHOSPHOKINASE / CREATININE / GLUCOSE / LACTATE DEHYDROGENASE / LIPASE / PHOSPHORUS / POTASSIUM / SODIUM / TOTAL BILIRUBIN / TOTAL PROTEIN / URIC ACID: tissue Plasma
[1] = 0 mg/kg, 72 h, dose level Control, time 3 day
[2] = 0 mg/kg, 120 h, dose level Control, time 5 day
[3] = 20 mg/kg, 72 h, dose level Low, time 3 day

C=CCC1(C(C)CCC)C(=O)NC(=O)NC1=O (centres undefined) [SECOBARBITAL]
ABSOLUTE BASOPHIL [1]: 0 CELLS/uL | ABSOLUTE EOSINOPHIL [1]: 32.5 CELLS/uL | ABSOLUTE LYMPHOCYTE [1]: 9305.83 CELLS/uL | ABSOLUTE MONOCYTE [1]: 43.83 CELLS/uL | ABSOLUTE SEGMENTED NEUTROPHIL [1]: 817.83 CELLS/uL | BASOPHIL [1]: 0% | EOSINOPHIL [1]: 0.33% | ERYTHROCYTE COUNT [1]: 5.38 x10E6/uL | HEMATOCRIT [1]: 33.63% | HEMOGLOBIN [1]: 13.17 G/DL | LEUKOCYTE COUNT [1]: 10.2 x10E3/uL | LYMPHOCYTE [1]: 91.17% | MEAN CORPUSCULAR HEMOGLOBIN [1]: 24.5 pg | MEAN CORPUSCULAR HEMOGLOBIN CONCENTRATION [1]: 39.13 G/DL | MEAN CORPUSCULAR VOLUME [1]: 62.53 fL | MONOCYTE [1]: 0.5% | NEUTROPHIL [1]: 8% | NUCLEATED RED BLOOD CELLS [1]: 0.17 /100WBC | PLATELET COUNT [1]: 858 x10E3/uL | ALANINE AMINOTRANSFERASE [1]: 55.67 u/L | ALBUMIN [1]: 4.07 G/DL | ALKALINE PHOSPHATASE [1]: 337 u/L | ASPARTATE AMINOTRANSFERASE [1]: 84 u/L | BLOOD UREA NITROGEN [1]: 13.17 mg/dL | CARBON DIOXIDE [1]: 34.17 mmol/L | CHLORIDE [1]: 99.33 MEQ/L | CHOLESTEROL [1]: 78.83 mg/dL | CREATINE PHOSPHOKINASE [1]: 576.83 u/L | CREATININE [1]: 0.17 mg/dL | GLUCOSE [1]: 152.67 mg/dL | LACTATE DEHYDROGENASE [1]: 147.83 u/L | LIPASE [1]: 9.5 u/L | PHOSPHORUS [1]: 10.78 mg/dL | POTASSIUM [1]: 6.34 MEQ/L | SODIUM [1]: 144.12 MEQ/L | TOTAL BILIRUBIN [1]: 0.18 mg/dL | TOTAL PROTEIN [1]: 6.08 G/DL | URIC ACID [1]: 0.65 mg/dL | ABSOLUTE BASOPHIL [2]: 0 CELLS/uL | ABSOLUTE EOSINOPHIL [2]: 31.17 CELLS/uL | ABSOLUTE LYMPHOCYTE [2]: 7918.33 CELLS/uL | ABSOLUTE MONOCYTE [2]: 58.33 CELLS/uL | ABSOLUTE SEGMENTED NEUTROPHIL [2]: 725.5 CELLS/uL | BASOPHIL [2]: 0% | EOSINOPHIL [2]: 0.33% | ERYTHROCYTE COUNT [2]: 5.32 x10E6/uL | HEMATOCRIT [2]: 33.53% | HEMOGLOBIN [2]: 13.17 G/DL | LEUKOCYTE COUNT [2]: 8.73 x10E3/uL | LYMPHOCYTE [2]: 90.33% | MEAN CORPUSCULAR HEMOGLOBIN [2]: 24.82 pg | MEAN CORPUSCULAR HEMOGLOBIN CONCENTRATION [2]: 39.33 G/DL | MEAN CORPUSCULAR VOLUME [2]: 63.12 fL | MONOCYTE [2]: 0.67% | NEUTROPHIL [2]: 8.67% | NUCLEATED RED BLOOD CELLS [2]: 0 /100WBC | PLATELET COUNT [2]: 1144.83 x10E3/uL | ALANINE AMINOTRANSFERASE [2]: 60.5 u/L | ALBUMIN [2]: 3.97 G/DL | ALKALINE PHOSPHATASE [2]: 343.17 u/L | ASPARTATE AMINOTRANSFERASE [2]: 80.83 u/L | BLOOD UREA NITROGEN [2]: 15 mg/dL | CARBON DIOXIDE [2]: 31 mmol/L | CHLORIDE [2]: 99.75 MEQ/L | CHOLESTEROL [2]: 71.5 mg/dL | CREATINE PHOSPHOKINASE [2]: 237.17 u/L | CREATININE [2]: 0.17 mg/dL | GLUCOSE [2]: 137 mg/dL | LACTATE DEHYDROGENASE [2]: 146.17 u/L | LIPASE [2]: 11.5 u/L | PHOSPHORUS [2]: 10.13 mg/dL | POTASSIUM [2]: 6 MEQ/L | SODIUM [2]: 145 MEQ/L | TOTAL BILIRUBIN [2]: 0.13 mg/dL | TOTAL PROTEIN [2]: 5.82 G/DL | URIC ACID [2]: 0.62 mg/dL | ABSOLUTE BASOPHIL [3]: 0 CELLS/uL | ABSOLUTE EOSINOPHIL [3]: 51.33 CELLS/uL | ABSOLUTE LYMPHOCYTE [3]: 9158 CELLS/uL | ABSOLUTE MONOCYTE [3]: 51.33 CELLS/uL | ABSOLUTE SEGMENTED NEUTROPHIL [3]: 572.67 CELLS/uL | BASOPHIL [3]: 0% | EOSINOPHIL [3]: 0.67% | ERYTHROCYTE COUNT [3]: 5.3 x10E6/uL | HEMATOCRIT [3]: 33.23% | HEMOGLOBIN [3]: 12.87 G/DL | LEUKOCYTE COUNT [3]: 9.83 x10E3/uL | LYMPHOCYTE [3]: 93% | MEAN CORPUSCULAR HEMOGLOBIN [3]: 24.27 pg | MEAN CORPUSCULAR HEMOGLOBIN CONCENTRATION [3]: 38.7 G/DL | MEAN CORPUSCULAR VOLUME [3]: 62.83 fL | MONOCYTE [3]: 0.67% | NEUTROPHIL [3]: 5.67% | NUCLEATED RED BLOOD CELLS [3]: 0 /100WBC | PLATELET COUNT [3]: 930.33 x10E3/uL | ALANINE AMINOTRANSFERASE [3]: 63 u/L | ALBUMIN [3]: 4.2 G/DL | ALKALINE PHOSPHATASE [3]: 397.67 u/L | ASPARTATE AMINOTRANSFERASE [3]: 98.33 u/L | BLOOD UREA NITROGEN [3]: 13.33 mg/dL | CARBON DIOXIDE [3]: 35 mmol/L | CHLORIDE [3]: 99 MEQ/L | CHOLESTEROL [3]: 83.33 mg/dL | CREATINE PHOSPHOKINASE [3]: 496 u/L | CREATININE [3]: 0.16 mg/dL | GLUCOSE [3]: 140.67 mg/dL | LACTATE DEHYDROGENASE [3]: 160.33 u/L | LIPASE [3]: 9.67 u/L | PHOSPHORUS [3]: 11.03 mg/dL | POTASSIUM [3]: 6.51 MEQ/L | SODIUM [3]: 143.6 MEQ/L | TOTAL BILIRUBIN [3]: 0.2 mg/dL | TOTAL PROTEIN [3]: 6.1 G/DL | URIC ACID [3]: 0.83 mg/dL
